One data set has as its target cloned hTRPM8 channel (Homo sapiens (Human), UniProt Q7Z2W7). The data set can be described thus: TRPM8 agonist activity, Fluo-8 calcium FLIPR assay (ChanTest). The format is cell-based. Particulars: for Relative Potency to L-menthol: L-menthol = 1.0; for TRPM8 bioactivity: structural modifications; for TRPM8 Relative Potency: Table 8, DIPA-1-7 = 1. On the procedure:
In the first set of data, the potency and in vitro effects of test compounds were evaluated on cloned hTRPM8 channel (encoded by the human TRPM8 gene, expressed in CHO cells) using a Fluo-8 calcium kit and a Fluorescence Imaging Plate Reader (FLIPR^TETRA™) instrument. […] Test solutions were in a HEPES-buffered saline, in 384-well plates, and placed into the FLIPR instrument (Molecular Devices Corporation, Union City, Calif., USA). […] The test cells were Chinese Hamster Ovary (CHO) cells stably transfected with human TRPM8 cDNAs. Concentration-response data were analyzed via FLIPR Control software) and fitted to a Hill equation for the EC50.

Another data set deals with anesthetized rat. The data set is described as follows: In vivo transdermal activity: shaking after topical application to abdominal skin of anesthetized rat. Conditions: pure compound 20 μL on abdominal skin, counted 40 min. As for the experimental part:
Shaking frequency was counted for 40 min after topical application.
The importance of water solubility for permeation was further illustrated in studies on the abdominal skin of anesthetized rat. […] The pharmacokinetic determinants of bioactivity are precise. Thus, for the avoidance of cold discomfort, DIPA-1-9 has to reach the receptors in the stratum basale but not “over-stimulate”.

Data set [1] in a line: Water solubility of 1-dialkylphosphorylalkanes. The format is physicochemical. Particulars: water. From the text:
The DIPA compounds are colorless liquids with a density less than water. These structures differ from those described by Rowsell and Spring U.S. Pat. No. 4,070,496 because '496 structures have their “head” (phosphine oxide group) covered by larger, more lipophilic groups. […] The applicant synthesized these analogs (which are achiral, by contrast to the structures of '496 which are >95% chiral). […] This increased water-solublility is striking (Table 3). […] The DIPA analogs are now mobile in the extracellular fluids and permeate between cells to access nerve endings in the stratum basale.

Another data set relates to rat skin. The data set can be described thus: Skin irritation tests on rat skin. The data set is classed as in vivo. Also on record: key to Redness after 20 μL applied topically to skin (scale of 0 to +++): scale of 0 to +++; scale of 0 to +++; scale of 0 to +++; scale of 0 to +++. Conditions: for Redness after 20 μL applied topically to skin (scale of 0 to +++): rat skin; for skin irritancy: undiluted form.

A further data set deals with Oral Cavity and Pharynx. The data set is described as follows: Sensory qualities of compounds in syrup applied to base of tongue of volunteers. Particulars: for duration of unpleasant tastes: metallic, organic solvent-like, harsh. The data set is classed as in vivo, human. As for the experimental part: The DIPA compounds was 5 mg/mL in cherry-flavored syrup in a volume of 0.8 mL per dose. The sensory effect were recorded every 5 min for 1 hr.
Tests were on four volunteers, with 3 to 5 trials per substance. Compounds were prepared in cherry-flavored syrup at 5 mg/mL and administered ˜0.8 mL per dose with a 2 mL plastic vial to the base of the tongue. The subjects asked to rate the sensations for cooling intensity, cold discomfort and adverse taste.
The concentration of the DIPA compounds was 5 mg/mL in cherry-flavored syrup administered in a volume of 0.8 mL per dose. The sensory effect were recorded every 5 min for 1 hr.

Data set [2] deals with acid-induced swallowing movements. The data set can be described thus: Suppression of acid-induced swallowing movements in the anesthetized rat. The format is in vivo. Conditions: for EC50: anesthetized rat; for Relative Potency: suppression of acid-induced swallowing. The text has this: A principal endogenous irritant in the linings of the upper aerodigestive tract is hydrochloric acid. Acid stimulations of the mucosa of the pharynx will elicit reflex swallowing. […] In a rat animal model, solutions of organic acids such as acetic acid and citric acid were effective in eliciting swallowing [Kajii et al., Sour taste stimulation facilitates reflex swallowing from the pharynx and larynx in the rat Physiology & Behavior 77: 321-325, 2002]. These methods for measuring sensory responses to acid can be adapted for screening the activity of DIPA-1-9. An agent that stimulates swallowing or an agent that suppress the acid challenge may then have utility in relieving dysphagia or the discomfort of heartburn, respectively. Preliminary experiments were conducted at the Pavlov Institute of Physiology, St. Petersburg, Russia, using adult male Wistar rats (see Table 11) and Wei (US 0.2015/0111852 A1). Swallowing movements was identified as the electromyogram activity and could also be visualized as laryngeal movement. Work is in progress to get more results for DIPA-1-9.

Another data set concerns oropharynx and esophagus. The data set is described as follows: Sensory events and cold discomfort of compounds on throat, chest and body. Particulars: for icy cold / pain in throat: DIPA-1-9 up to 12 mg per unit.
The mark [3] stands for this setting: 5 mg/mL in cherry-flavored syrup.
[4] abbreviates: 5 mg/mL in cherry-flavored syrup, ~0.8 mL.

SMILES strings stand for the structures. Values after ≈ are worked out from the molar mass of the structure shown. Where only a bound is given, the exact number is not on record here.

13 molecules from patent US11406649B2, “Treatment of upper aerodigestive tract disorders and cough” (IVIEW THERAPEUTICS, INC., priority 2018, dated 2022) can be followed below.

Broadly, the solubility is the dissolved amount per volume that the medium holds. In general, EC50 refers to the concentration at which the effect is half-maximal.

Chain of cloned hTRPM8 channel (Q7Z2W7 whole entry): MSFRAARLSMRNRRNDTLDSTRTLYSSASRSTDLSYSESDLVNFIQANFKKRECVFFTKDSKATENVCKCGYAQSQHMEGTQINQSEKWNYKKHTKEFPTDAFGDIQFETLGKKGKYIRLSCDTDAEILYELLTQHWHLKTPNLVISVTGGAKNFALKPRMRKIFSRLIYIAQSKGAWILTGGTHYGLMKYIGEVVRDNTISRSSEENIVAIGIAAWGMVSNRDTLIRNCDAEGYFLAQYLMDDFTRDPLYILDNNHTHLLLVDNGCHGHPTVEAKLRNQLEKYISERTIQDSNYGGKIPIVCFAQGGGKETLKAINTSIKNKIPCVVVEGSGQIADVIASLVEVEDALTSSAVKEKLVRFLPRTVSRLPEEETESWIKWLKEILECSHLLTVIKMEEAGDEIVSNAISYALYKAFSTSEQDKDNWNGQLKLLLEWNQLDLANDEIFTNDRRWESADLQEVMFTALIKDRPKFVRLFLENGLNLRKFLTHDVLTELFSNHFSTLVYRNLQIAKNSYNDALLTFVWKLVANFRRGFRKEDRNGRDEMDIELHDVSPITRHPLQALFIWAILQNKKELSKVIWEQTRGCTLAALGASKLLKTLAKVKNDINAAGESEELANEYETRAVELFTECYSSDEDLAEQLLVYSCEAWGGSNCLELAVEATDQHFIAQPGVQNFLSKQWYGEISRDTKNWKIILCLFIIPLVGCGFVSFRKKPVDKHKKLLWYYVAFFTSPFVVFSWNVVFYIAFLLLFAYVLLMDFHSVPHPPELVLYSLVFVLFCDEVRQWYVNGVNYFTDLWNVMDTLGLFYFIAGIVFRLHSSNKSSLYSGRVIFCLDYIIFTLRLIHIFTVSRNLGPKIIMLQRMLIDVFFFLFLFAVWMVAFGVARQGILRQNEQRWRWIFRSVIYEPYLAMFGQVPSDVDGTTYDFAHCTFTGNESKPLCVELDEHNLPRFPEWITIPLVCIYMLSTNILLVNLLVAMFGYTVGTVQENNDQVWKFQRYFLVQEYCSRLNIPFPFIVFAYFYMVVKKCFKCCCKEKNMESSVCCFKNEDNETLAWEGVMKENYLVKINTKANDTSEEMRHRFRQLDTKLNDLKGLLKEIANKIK
Text for oropharynx and esophagus: The terms “icy cold” is used to describe this adverse event in the throat.
Most likely, the compound rapidly distributed and activated cold sensations in the eosophageal lining.

Turning to `CCCCCP(=O)(CC(C)C)CC(C)C` [DAPA-3-1, 1-di(iso-butyl) phosphinoyl-pentane], on cloned hTRPM8 channel, the “Relative Potency to L-menthol” value was 0.2 and the “TRPM8 bioactivity” value is “significant loss of bioactivity”.
Turning to `CCCCP(=O)(C(C)CC)C(C)CC` (centres unmarked) [DAPA-2-4, 1-Di(sec-butyl)-phosphinoyl-butane], the “Relative Potency to L-menthol” value at cloned hTRPM8 channel was found to be 0.3.
Regarding `CCCCCP(=O)(C(C)C)C(C)C` [DIPA-1-5, 1-Di(isopropyl)-phosphinoyl-pentane], the “Relative Potency to L-menthol” value at cloned hTRPM8 channel amounted to 0.7. Also, in the data set with anesthetized rat, the “shaking after topical application” value was “robust shaking”.
Consider `CCC(C)P(=O)(CCC(C)C)C(C)CC` (centres unmarked) [DAPA-3-2, 1-Di(sec-butyl) phosphinoyl-3-methyl-butane], for which, on cloned hTRPM8 channel, the “Relative Potency to L-menthol” value is reported as 0.9 and the “TRPM8 bioactivity” value was “significant loss of bioactivity”.
In the case of `CCCCCCP(=O)(C(C)CC)C(C)CC` (centres unmarked) [DAPA-2-6, 1-Di(sec-butyl)-phosphinoyl-hexane], at cloned hTRPM8 channel, the “Relative Potency to L-menthol” value came out at 4.7 and the “TRPM8 Relative Potency” value is given as 0.87. This molecule also yielded a solubility in data set [1] of 8 mg/mL (≈ 32.5 mM). In the data set on rat skin, the “Redness after 20 μL applied topically to skin (scale of 0 to +++)” value is given as “+” and the skin irritancy result is listed as “skin irritants”. For the same molecule, the “sensory effects” value in the data set on Oral Cavity and Pharynx (setting [3]) was “cold, icy cold, and adverse tastes”. For the same molecule, the Sensation result in the data set with Oral Cavity and Pharynx (setting [4]) was “icy cold”. Besides, in the data set with Oral Cavity and Pharynx, the “duration of unpleasant tastes” value was “at least 15 min”. Further, in data set [2], a half-maximal response (EC50) required 1700 ± 700 µg/mL (≈ 6.9 mM) and the “Relative Potency” value stood at 0.05. Moreover, in the data set on oropharynx and esophagus, the “icy cold / pain in throat” value is reported as “icy cold”.
Take `CCCCCCP(=O)(C(C)C)C(C)C` [DIPA-1-6, 1-Di(isopropyl)-phosphinoyl-hexane]: the “Relative Potency to L-menthol” value on cloned hTRPM8 channel was determined as 1.6. The “shaking after topical application” value in the data set on anesthetized rat is on record as “robust shaking”. Also, the “icy cold / pain in throat” value with oropharynx and esophagus is “icy cold”.
With `CCCCCP(=O)(C(C)CC)C(C)CC` (centres unmarked) [DAPA-2-5, 1-di-sec-butyl-phosphorylpentane], the “Relative Potency to L-menthol” value on cloned hTRPM8 channel was determined as 2.2. Moreover, the solubility in data set [1] is 22 mg/mL (≈ 94.7 mM).
As for `CCCCCCC[P@@](=O)(C(C)C)[C@@H](C)CC` [3,4-7, 1-(Isopropyl-sec-butyl)-phosphinoyl-heptane], in data set [1], the solubility came out at 20 mg/mL (≈ 81.2 mM).
For `O=C1NC(c2cccc([N+](=O)[O-])c2)=CCN1c1ccccc1O` [icilin, reference compound], the sensory side-effects result in the data set on oropharynx and esophagus (menthol 5 mg in an orally dissolving tablet) was “did not produce cooling in the chest or the desired sensations on the throat”.
Regarding `CCCCCCCCP(=O)(C(C)C)C(C)C` [DIPA-1-8, 1-Di(isopropyl)-phosphinoyl-octane], at cloned hTRPM8 channel, the “Relative Potency to L-menthol” value stood at 5.4. This molecule also showed a solubility in data set [1] of more than 300 mg/mL. In addition, the “sensory effects” value in the data set with Oral Cavity and Pharynx (setting [3]) was “cold, icy cold, and adverse tastes”. Besides, in the data set on Oral Cavity and Pharynx (setting [4]), the Sensation entry is reported as “cold”. Also, the “duration of unpleasant tastes” value in the data set with Oral Cavity and Pharynx is listed as “at least 15 min”. Further, the taste result in the data set on oropharynx and esophagus (oral cavity / tongue) was “this taste is present”.
Take `CCCCCCCCP(=O)(C(C)CC)C(C)CC` (centres unmarked) [DAPA-2-8, 1-Di(sec-butyl)-phosphinoyl-octane]: at cloned hTRPM8 channel, the “Relative Potency to L-menthol” value is on record as 2.9 and the “TRPM8 Relative Potency” value worked out at 0.71. For the same molecule, the solubility in data set [1] is less than 3 mg/mL. In addition, the Sensation entry in the data set on Oral Cavity and Pharynx (setting [4]) was “cold”. Besides, the “duration of unpleasant tastes” value with Oral Cavity and Pharynx is given as “at least 15 min”. For the same molecule, in data set [2], it took 560 ± 170 µg/mL (≈ 2.04 mM) to reach a half-maximal effect (EC50) and the “Relative Potency” value is reported as 0.16.
`CCCCCCCP(=O)(C(C)CC)C(C)CC` (centres unmarked) [DAPA-2-7, 1-Di(sec-butyl)-phosphinoyl-heptane]: at cloned hTRPM8 channel, the “Relative Potency to L-menthol” value is given as 3.4 and the “TRPM8 Relative Potency” value worked out at 0.64. This molecule registered a solubility in data set [1] of less than 3 mg/mL. In the data set with rat skin, the “Redness after 20 μL applied topically to skin (scale of 0 to +++)” value is reported as “++” and the skin irritancy result is recorded as “skin irritants”. Moreover, in the data set with Oral Cavity and Pharynx (setting [3]), the “sensory effects” value was “cold, icy cold, and adverse tastes”. In addition, the Sensation entry with Oral Cavity and Pharynx (setting [4]) is given as “icy cold”. Besides, the “duration of unpleasant tastes” value with Oral Cavity and Pharynx is “at least 15 min”. In data set [2], the concentration giving a half-maximal response (EC50) was determined as 200 ± 20 µg/mL (≈ 0.768 mM) and the “Relative Potency” value is listed as 0.45. Also, the “Comments: duration of effect” value in data set [2] (long-lasting) was “lasting; > ~30 min”. In addition, in the data set with oropharynx and esophagus, the “icy cold / pain in throat” value was “icy cold”. The “systemic sensations of cold” value in the data set on oropharynx and esophagus (higher oral doses (5 mg or more)) is recorded as “sensations of cold on other body surfaces”.
Turning to `CCCCCC[P@@](=O)(C(C)C)[C@@H](C)CC` [3,4-6, 1-(Isopropyl-sec-butyl)-phosphinoyl-hexane], the concentration in solution in data set [1] (solubility) came to 25 mg/mL (≈ 108 mM). For the same molecule, the “Adverse Taste” value in the data set with Oral Cavity and Pharynx (setting [4]) was 0.
